Measurements from patent publication US20240199628A1, “TETRAPYRROLE-BASED COMPOUNDS AND THEIR FOMULATIONS FOR ANTI-MICROBIAL THERAPY” (biolitec Unternehmensbeteiligungs II AG, priority 2021, published 2024).

What was measured:
[1] = test system: replication competent HIV-1 infectious molecular env clones (IMC); assay: A3R5 assay, all tested HIV-1 IMCs; type: cell-based; conditions: two independent runs, concentrations of 2.5 μM and 1.25 μM
Experimental: (§1) Antiviral testing was performed using temoporfin. The organisms studied were replication competent HIV-1 infectious molecular env clones (IMC) in the A3R5 assay. Following IMC were used: (I) 398-71-F6_20-IMC (origin Tansania, Clade A), (II) X2278_C2_B6-IMC (origin Spain, Clade D), (III) 25710_2.43-IMC (origin India, Clade C) and (IV) CNE55-IMC (origin China, Clade […]). Virus specific original env sequences were cloned into the HIV-1 NL4-3 backbone (gene bank ID: M19921) sequence containing a Renilla reniformis luciferase reporter gene to measure the infectivity rate.
(§2) A3R5 cells are grown in RPMI1640 supplemented with 10% fetal calf serum, 25 mM HEPES, 50 μg/ml gentamycine and 1 mg/ml geneticin. […] Within the assay the A3R5 cells were added (plus 5 μg/ml DEAE-Dextran) to the temoporfin samples in the presence of the respective amount of IMC at 50,000 RLU equivalents. After 96 hrs incubation the read out of the A3R5 assays occurred. The decrease of the luminescence compared to the virus control was measured using Victor X3 luminometer (Perkin Elmer) and allowed the detection of a possible inhibitory effect of temoporfin against HIV-1 IMCs.

[2] = test system: 25710_2.43-IMC (origin India, Clade C); assay: A3R5 assay, virus inhibition, HIV-1 IMC 25710_2.43; type: cell-based; conditions: Human immunodeficiency virus 1, 96 h, read-out: inhibition compared to the virus control
Experimental: as §1, §2

[3] = test system: CNE55-IMC (origin China, Clade CRF01_AR); assay: A3R5 assay, virus inhibition, HIV-1 IMC CNE55; type: cell-based; conditions: Human immunodeficiency virus 1, 96 h, read-out: inhibition compared to the virus control
Experimental: as §1, §2

[4] = test system: X2278_C2_B6-IMC (origin Spain, Clade D); assay: A3R5 assay, virus inhibition, HIV-1 IMC X2278_C2_B6; type: cell-based; conditions: 96 h, read-out: anti-HIV-1 effect (inhibition)
Experimental: as §1, §2

[5] = test system: 398-71-F6_20-IMC (origin Tansania, Clade A); assay: A3R5 assay, virus inhibition, HIV-1 IMC 398-71-F6_20; type: cell-based; conditions: Human immunodeficiency virus 1, 96 h, read-out: anti-HIV-1 effect (inhibition)
Experimental: as §1, §2

[6] = test system: Staphylococcus aureus biofilms; assay: Antibacterial testing of bacterial biofilms (CFU/ml); type: cell-based, Staphylococcus aureus DSM1104; conditions: S. aureus biofilms (FIG. 1F)
Experimental: For antibacterial testing of bacterial biofilms the 96 pins of a transferable solid phase plates (TSP; Nunc-Immuno™ TSP with MaxiSorp™ surface) were used to generate the biofilms. The TSP plates were transferred in 96-well plates with 200 μl fresh overnight culture of Staphylococcus aureus DSM1104 cells and incubated at 35° C. about 20 hours by gentle shaking. Within this time the bacterial cells established biofilms on the pins. After removing of unattached cells by gentle washing with 250 μl of 0.9% NaCl solution the TSP plates with the biofilms on the pins were incubated with 250 μl of the photosensitizer solution or the solvent of the photosensitizer solution for control samples for 30 minutes in the dark. After incubation and another washing the pins were irradiated by white light, with a power density and irradiation time resulting in an energy fluence of about 100 J/cm^2. For the quantification of remaining attached cells, the pins were transferred into 250 μl of 0.9% NaCl solution by gentle sonication. The samples are removed, suspended in the culture media, and the numbers of colony-forming units (CFU/ml) are enumerated after an adequate incubation time period.

Staphylococcus aureus = assay: Antibacterial testing in submerged cultures (CFU/ml); type: cell-based; conditions: S. aureus
Source text: The organisms studied were Staphylococcus aureus DSM 1104 and DSM 11729, gram positive, Klebsiella pneumoniae, gram negative, Enterobacter aerogenes, gram negative, and Acinetobacter baumannii, gram negative. For antibacterial testing in submerged cultures cultured cells are suspended in sterile phosphate-buffered saline (PBS), sterile PBS supplemented with 10% sterile horse serum, or sterile PBS supplemented with 10% sheep blood. The bacterial suspensions are placed into sterile black well plates with clear bottoms. Concentrations of photosensitizer used in the study were as follows: 1 μM, 10 μM, 100 μM, and 1 mM. After an incubation time period of 30 minutes, the samples are exposed to white light, with a power density and irradiation time resulting in an energy fluency of about 100 J/cm^2. Control samples contained no photosensitizer and are not exposed to light. The control samples for dark toxicity are only exposed to photosensitizer without any illumination. After irradiation, the samples are removed and suspended again in the culture media. The numbers of colony-forming units (CFU/ml) are enumerated after an adequate incubation time period.

Oc1cccc(-c2c3nc(c(-c4cccc(O)c4)c4ccc([nH]4)c(-c4cccc(O)c4)c4nc(c(-c5cccc(O)c5)c5ccc2[nH]5)CC4)C=C3)c1 [Temoporfin, 5,10,15,20-tetrakis(3-hydroxyphenyl)chlorin]
anti-HIV activity [1]: anti-HIV activity was observed | inhibition at 2.5 µM [2]: 42% | inhibition at 2.5 µM [3]: 22% | inhibition at 2.5 µM [4]: 38% | inhibition at 2.5 µM [5]: 35%

[5,10,15,20-tetrakis(3-hydroxyphenyl)porphyrinato]zinc(II)
antibacterial activity against biofilms [6]: active | antibacterial activity (Staphylococcus aureus; in the absence of light (FIG. 1A)): high antibacterial activity | antibacterial activity (Staphylococcus aureus; in the presence of complex media (serum) (FIG. 1A, middle)): activity | antibacterial activity (Staphylococcus aureus; in the presence of whole blood (FIG. 1A, right)): activity
